Read-outs that look alike come from different tables or passages of the source.
Columns and labels:
[1] = tested on: Cryptococcus neoformans ATCC 90112; assay: Antifungal susceptibility testing, microdilution MIC; assay type: cell-based; details: Cryptococcus neoformans, ATCC90112
Description: (§1) Antifungal susceptibility testing. The antifingal activity of the compounds was measured by a standard microdilution method. […] The fungal strains tested included Cryptococcus neoformans H99, Cryptococcus neoformans ATCC 90112 and Candida albicans ATCC 10231. All tests were performed in duplicate.
(§2) A range of cationic compounds were assayed for antifungal activity in a standardised serial dilution sensitivity test against C. neoformans ([…]) and C. Albicans (ATCC 10231).

[2] = tested on: Candida albicans ATCC 10231; assay: as above; assay type: cell-based; details: Candida albicans, ATCC10231
Description: as §1, §2

[3] = tested on: secreted phospholipase B (PLB activity); assay: Radiometric assay, secreted PLB activity; assay type: biochemical, Cryptococcus neoformans H99; details: for PLB, percentage inhibition of activity: Secretory Cryptococcal H99 Phospholipase
Description: Fungal isolates and media. […] Isolate H99 was kindly supplied by Dr. Gary Cox (Duke University Medical Center, Durham, N.C., USA), and subcultured onto Sabouraud dextrose agar (SDA) at 30° C.
Preparation of supernatants containing secreted phospholipase activities. Isolate H99 was grown to confluence on SDA in 16 cm diameter Petri dishes for 72 h at 30° C. in air. Cells scraped from 10-20 dishes were washed sequentially with isotonic saline and imidazole buffer (10 mM imidazole, 2 mM CaCl2, 2 mM Mg Cl2, 56 mM D-Glucose, made up in isotonic saline, pH 5.5), resuspended in a volume of this buffer of about 10% of the cell volume, and incubated for 24 h at 37° C. The cell-free supernatant was separated by centrifugation as previously described and stored at −70° C.
Radiometric assay method for phospholipases. Enzyme activities were measured as described previously in a final volume of 125 μL at 37° C. For the determination of secreted PLB activity, carrier dipalmitoyl phosphatidylcholine (DPPC, final concentration 800 μM) and 1,2-di[1-^14C] palmitoyl phosphatidylcholine (20,000 dpm) were dried under nitrogen and suspended in 125 mM imidazole acetate buffer (assay buffer, pH 4.0) by sonication using a Branson 450 sonifier. The reaction time was 22 min, using 1 μg total protein and PLB activity was determined by the rate of decrease of the radiolabelled PC substrate, with appearance of the label in free fatty acid. This assay also simultaneously allows for the determination of phospholipase A, C and D activities. These activities were measured by the appearance of radiolabel from PC in Lyso PC, diacylglycerol and phosphatidic acid, respectively.
All reactions were terminated by adding 0.5 mL of chloroform:methanol (2:1 v/v). The reaction products were extracted by the method as disclosed in Bligh, E. C. and W. J. Dyer. 1959 ‘A rapid method of total lipid extraction and purification.’ Can. J. Biochem. Physiol. 37:911-917, separated by TLC and quantified as previously described. In the case of PLC activity, the TLC plates were developed in petroleum ether (BP 60-80° C.): diethyl ether: acetic acid (90:15:1, v/v/v) instead of chloroform:methanol:water (65:25:4, v/v/v).
Preparation of inhibitors and use in assays. The following compounds were tested (for structures, see FIG. 2): compound 1, 1,12-bis(tributylphosphonium)dodecane dibromide (Fluka AG, Buchs, Switzerland); compound 2, 1,10-bis(tributylammonium)-decane dibromide; compound 3, 1,12-bis(tributylammonium)do-decane dibromide (both synthesised in-house); compound 4, 1,10-bis(trimethylammonium)decane dibromide [“decamethonium”] (Sigma, St. Louis Mo., USA). All compounds were prepared as stock solutions of 700 μM in assay buffer containing 5 mM EDTA, which was then diluted serially with buffer to obtain solutions of 70, 7, 0.7 and 0.07 μM. In each assay, 45 μL of these solutions was used, and the final volume of 125 μL was made up of substrate, enzyme and buffer. The radiometric assay was carried out as above. Inhibition was calculated as the percent of substrates (DPPC or Lyso-PC) remaining in the case of PLB and LPL activities, or of DPPC produced, in the case of the LPTA activity. The amounts converted, or produced, in the inhibitor-free control were normalised to 100%, and the inhibition calculated against it. All assays were done in triplicate.
Under these conditions only PLB, LPL and LPTA activities (both secreted and cell-associated) were measured. Initially, compounds deemed to be potential inhibitors were assayed at 25 and 250 μM. Those showing some inhibition were then also assayed at 2.5 and 0.25 μM.

[4] = target: T1, Porcine pancreatic phospholipase A2 (Sus scrofa, UniProt P00592); assay: Pancreatic phospholipase assay; assay type: biochemical; details: read-out: ppPLA2, percentage inhibition of activity
T1 construct: purchased Sigma, St. Louis MO, USA
T1 sequence (P00592 23-146): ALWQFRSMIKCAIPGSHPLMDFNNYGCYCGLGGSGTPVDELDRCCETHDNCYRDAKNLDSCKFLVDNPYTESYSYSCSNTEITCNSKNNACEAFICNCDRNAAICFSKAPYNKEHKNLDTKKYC
Description: Pancreatic phospholipase assay. Porcine pancreatic phospholipase A2 suspension in 3.2M ammonium sulfate (2.9 mg protein/mL, Sigma St.Louis Mo., USA) was used. One part of well mixed enzyme suspension was added to 4 parts of buffer (10 mM Tris/HCl, pH 8.2; 10 mM CaCl2. Activity and inhibition by test compounds was then measured by the radiometric method described in Example 2 for fungal PLB activity. However, 25 μL enzyme solution was used, and the reaction time was 1 hour. These conditions result in ˜60% substrate conversion in the inhibitor-free control.

CCCC[N+](CCCC)(CCCC)CCCCCCCCCC[N+](CCCC)(CCCC)CCCC [Compound 2, 1,10-bis(tributylammonium)-decane dibromide]
MIC ([1]; Table 6, no visible growth after 72 h at 35° C., read-out: MIC C. neof. ATCC 90112): 11 µM
MIC ([1]; Table 7, read-out: MIC (μM) Crypto. (ATCC 90112)): 11 µM
MIC ([2]; Table 6, no visible growth after 48 h at 35° C., read-out: MIC C. albicans ATCC 10231): 88 µM
MIC ([2]; Table 7, read-out: MIC (μM) C. alb. (10231)): 88 µM
PLB assay (% inhibition) ([3]; 0.25 μM): 0%
PLB, percentage inhibition of activity ([3]; 0.25 μM): 0%
PLB assay (% inhibition) ([3]; 2.5 μM): 30%
PLB, percentage inhibition of activity ([3]; 2.5 μM): 30%
PLB assay (% inhibition) ([3]; 25 μM): 80%
PLB, percentage inhibition of activity ([3]; 25 μM): 80%
PLB assay (% inhibition) ([3]; 250 μM): 90%
PLB, percentage inhibition of activity ([3]; 250 μM): 90%
inhibition at 0.25 µM ([4]; 0.25 μM): 0%
inhibition at 2.5 µM ([4]; 2.5 μM): 0%
inhibition at 25 µM ([4]; 25 μM): 25%
inhibition at 250 µM ([4]; 250 μM): 65%

Source: US7947854B2, “Bis-cationic compounds and use thereof” (The University of Sydney, priority 2003, dated 2011)
